The record followed here is patent publication US20240124434A1, “ATF6 INHIBITORS AND USES THEREOF” (Altos Labs, Inc., priority 2018, published 2024).

Read-outs that look alike come from different tables or passages of the source.

In this test the test system is ATF6. The test can be described thus: ERSE ATF6-luciferase reporter assay (thapsigargin-induced ER stress). To be noted: thapsigargin-induced ER stress, U2-OS ATF6 luc reporter cells. The format is cell-based, human. For orientation: In a reporter assay the amount or activity of a reporter protein is the signal.
The mark [1] stands for this setting: Homo sapiens, U2OS, 8 h, 1 μM test compound, 8 hr, read-out: Inh. ATF6-Luc @ 1 μM [%].
Setting [2] is: Homo sapiens, U2OS, dose-response 30 μM to 1 nM, read-out: IC50 ATF6-Luc reporter.

The term IC50 denotes the concentration that gives 50% inhibition.

Turning to `O=C(Nc1cnn(Cc2ccc(C(F)(F)F)cc2C(F)(F)F)c1)c1nnc(-c2ccccn2)o1` [Compound 151, N-(1-(2,4-bis(trifluoromethyl)benzyl)-1H-pyrazol-4-yl)-5-(pyridin-2-yl)-1,3,4-oxadiazole-2-carboxamide], the inhibition at 1 µM under setting [1] is < 25%. Moreover, under setting [2], the IC50 was > 10 µM.
In the same order, the values of `CC(c1ccc(F)cc1C(F)(F)F)n1cc(NC(=O)c2nnc(-c3ccccn3)s2)cn1` (centres unmarked) [Compound 137, N-(1-(1-(4-fluoro-2-(trifluoromethyl)phenyl)ethyl)-1H-pyrazol-4-yl)-5-(pyridin-2-yl)-1,3,4-thiadiazole-2-carboxamide] are < 25% and > 10 µM.
Consider `O=C(Nc1cnn(C2Cc3ccccc3C2)c1)c1cc(-c2ccco2)on1` [Compound 18, N-(1-(2,3-dihydro-1H-inden-2-yl)-1H-pyrazol-4-yl)-5-(furan-2-yl) isoxazole-3-carboxamide], for which the inhibition at 1 µM under setting [1] was < 25%. Further, the half-maximal inhibitory concentration (IC50) under setting [2] was > 10 µM.
For `C[C@@H](c1ccc(C(F)(F)F)cc1C(F)(F)F)n1cc(NC(=O)c2nnc(-c3ccccn3)o2)cn1` [Compound 134], in that order: < 25% and > 10 µM.
In the same order, the values of `CC(C)(C)c1cc(C(=O)Nc2cnn(Cc3ccc(C(F)(F)F)cc3C(F)(F)F)c2)no1` [Compound 13, N-{1-[2,4-bis(trifluoromethyl)benzyl]-1H-pyrazol-4-yl}-5-tert-butyl-1,2-oxazole-3-carboxamide] are < 25% and > 10 µM.
Consider `CC(=O)c1cc(C(=O)Nc2cnn(Cc3ccc(C(F)(F)F)cc3C(F)(F)F)c2)no1` [Compound 3, 5-acetyl-N-(1-(2,4-bis(trifluoromethyl)benzyl)-1H-pyrazol-4-yl)isoxazole-3-carboxamide], for which, under setting [1], the inhibition at 1 µM was < 25%. For the same molecule, the IC50 under setting [2] was > 10 µM.
For `O=C(Nc1cnn(Cc2c(Cl)cccc2Cl)c1)c1nnc(-c2ccco2)s1` [Compound 148, N-(1-(2,6-dichlorobenzyl)-1H-pyrazol-4-yl)-5-(furan-2-yl)-1,3,4-thiadiazole-2-carboxamide], in that order: < 25% and > 10 µM.
For `O=C(Nc1cnn(Cc2c(Cl)cccc2Cl)c1)c1cc(-c2ccco2)on1` [Compound 24, N-(1-(2,6-dichlorobenzyl)-1H-pyrazol-4-yl)-5-(furan-2-yl) isoxazole-3-carboxamide], in that order: < 25% and > 10 µM.
On to `CC(c1ccc(C(F)(F)F)cc1C(F)(F)F)n1cc(NC(=O)c2cc(-c3ccccn3)n(C)n2)cn1` (centres unmarked) [Compound 113, N-(1-(1-(2,4-bis(trifluoromethyl)phenyl)ethyl)-1H-pyrazol-4-yl)-1-methyl-5-(pyridin-2-yl)-1H-pyrazole-3-carboxamide], for which, under setting [1], the inhibition at 1 µM is < 25%. Besides, the half-maximal inhibitory concentration (IC50) under setting [2] was > 10 µM.
For `O=C(Nc1cnn([C@H]2CCc3ccccc32)c1)c1cc(-c2ccco2)on1` [Compound 150, (S)—N-(1-(2,3-dihydro-1H-inden-1-yl)-1H-pyrazol-4-yl)-5-(furan-2-yl)isoxazole-3-carboxamide], in that order: < 25% and > 10 µM.
Turning to `O=C(Nc1cnn(C2CCc3ccccc32)c1)c1cc(-c2ccccn2)on1` (centres unmarked) [Compound 143, N-(1-(2,3-dihydro-1H-inden-1-yl)-1H-pyrazol-4-yl)-5-(pyridin-2-yl)isoxazole-3-carboxamide], under setting [1], the inhibition at 1 µM was < 25%. Besides, the concentration for half-maximal inhibition (IC50) under setting [2] was > 10 µM.
For `O=C(Nc1cnn(Cc2ccc(C(F)(F)F)cc2C(F)(F)F)c1)c1cc(-c2ccncc2)on1` [Compound 10, N-(1-(2,4-bis(trifluoromethyl)benzyl)-1H-pyrazol-4-yl)-5-(pyridin-4-yl)isoxazole-3-carboxamide], in that order: < 25% and 1 to 10 µM.
Regarding `Cc1c(NC(=O)c2cc(-c3ccccn3)on2)cnn1[C@@H](C)c1ccc(C(F)(F)F)cc1C(F)(F)F` [Compound 98, (S)—N-(1-(1-(2,4-bis(trifluoromethyl)phenyl)ethyl)-5-methyl-1H-pyrazol-4-yl)-5-(pyridin-2-yl)isoxazole-3-carboxamide], under setting [1], the inhibition at 1 µM is < 25%. The concentration for half-maximal inhibition (IC50) under setting [2] is > 10 µM.
In the case of `C[C@H](c1ccc(C(F)(F)F)cc1C(F)(F)F)n1cc(NC(=O)c2cc(-c3ccccn3)[nH]n2)cn1` [Compound 119, (R)—N-(1-(1-(2,4-bis(trifluoromethyl)phenyl)ethyl)-1H-pyrazol-4-yl)-5-(pyridin-2-yl)-1H-pyrazole-3-carboxamide], under setting [1], the inhibition at 1 µM was < 25%. Besides, the IC50 under setting [2] was > 10 µM.
For `C[C@@H](c1ccc(F)cc1C(F)(F)F)n1cc(NC(=O)c2cc(-c3ccccn3)on2)cn1` [Compound 111, (S)—N-(1-(1-(4-fluoro-2-(trifluoromethyl)phenyl)ethyl)-1H-pyrazol-4-yl)-5-(pyridin-2-yl)isoxazole-3-carboxamide], in that order: < 25% and > 10 µM.
In the same order, the values of `C[C@H](c1ccc(C(F)(F)F)cc1C(F)(F)F)n1cc(NC(=O)c2cc(-c3cccnc3)on2)cn1` [Compound 36, (R)-N-(1-(1-(2,4-bis(trifluoromethyl)phenyl)ethyl)-1H-pyrazol-4-yl)-5-(pyridin-3-yl)isoxazole-3-carboxamide] are < 25% and > 10 µM.
For the molecule `C[C@@H](c1ccc(C(F)(F)F)cc1C(F)(F)F)n1cc(NC(=O)c2cc(-c3ccccn3)no2)cn1` [Compound 77, (S)—N-(1-(1-(2,4-bis(trifluoromethyl)phenyl)ethyl)-1H-pyrazol-4-yl)-3-(pyridin-2-yl)isoxazole-5-carboxamide], the inhibition at 1 µM (Homo sapiens, U2OS, 8 h, read-out: Inh. ATF6-Luc @ 1 μM [%], 1 μM test compound, 8 hr) is < 25%. The half-inhibitory concentration (IC50) (Homo sapiens, U2OS, read-out: IC50 ATF6-Luc reporter [μM], dose-response 30 μM to 1 nM) is > 10 µM.
With `Cc1cccc(-c2cc(C(=O)Nc3cnn(Cc4ccc(C(F)(F)F)cc4C(F)(F)F)c3)no2)n1` [Compound 115, N-(1-(2,4-bis(trifluoromethyl)benzyl)-1H-pyrazol-4-yl)-5-(6-methylpyridin-2-yl)isoxazole-3-carboxamide], the inhibition at 1 µM under setting [1] was 25 to 50%. Moreover, the half-maximal inhibitory concentration (IC50) under setting [2] is > 10 µM.
Consider `O=C(/C=C/c1ccco1)Nc1cnn(Cc2ccc(C(F)(F)F)cc2C(F)(F)F)c1` [Compound 84, (E)—N-(1-(2,4-bis(trifluoromethyl)benzyl)-1H-pyrazol-4-yl)-3-(furan-2-yl)acrylamide], for which the IC50 under setting [2] is > 10 µM. The inhibition at 1 µM (Homo sapiens, U2OS, 1 μM test compound, 8 hr, read-out: Inh. ATF6-Luc @ 1 μM [%]) is < 25%.
Consider Ceapin-A4 [reference compound], for which the “Inh. ATF6-Luc @ 1 μM [%]” value (1 μM test compound, 8 hr) is “+ (+ refers to <25% inhibition at 1 μM)”. In addition, for the setting “dose-response 30 μM to 1 nM, read-out: IC50 ATF6-Luc reporter”, the IC50 was > 10 µM.
Take `O=C(Nc1cnn([C@@H]2CCc3ccccc32)c1)c1cc(-c2ccco2)on1` [Compound 149, (R)—N-(1-(2,3-dihydro-1H-inden-1-yl)-1H-pyrazol-4-yl)-5-(furan-2-yl)isoxazole-3-carboxamide]: the inhibition at 1 µM under setting [1] is < 25%. Besides, under setting [2], the IC50 is > 10 µM.
As for `C[C@@H](c1ccc(C(F)(F)F)cc1C(F)(F)F)n1cc(NC(=O)c2ccccn2)cn1` [Compound 139, (S)—N-(1-(1-(2,4-bis(trifluoromethyl)phenyl)ethyl)-1H-pyrazol-4-yl)picolinamide], the inhibition at 1 µM under setting [1] is < 25%. Further, the concentration for half-maximal inhibition (IC50) under setting [2] is > 10 µM.
